Measured values from publication PMC8175350, “Drug repurposing screens identify chemical entities for the development of COVID-19 interventions” (Nature Communications, 2021).
pEC50: −log10 of the molar value. Where two headings read alike, the source gives them in different places.

Assays:
[1] = system: Calu-3 cells
[2] = human, cited from earlier work; for Approx. t1/2: ref [33]-[49]
[3] = system: HepG2; settings: human, 72 h
[4] = system: SARS-CoV-2; assay: microbe, parasite or virus in culture; assay type: cell-based; settings: for HeLa-ACE2 CoV-2 Sinf Average: curve-fit effect at infinite concentration
[5] = system: SARS-CoV-2; assay: microbe, parasite or virus in culture; assay type: cell-based; settings: for Emax: Severe acute respiratory syndrome coronavirus 2, Calu-3, 48 h; for Calu-3 CoV-2 Sinf Average: curve-fit effect at infinite concentration
[6] = system: HeLa-ACE2 cells; assay: Total cell count in the HeLa-ACE2 TOA (time of addition) assay; assay type: cell-based, human; settings: Homo sapiens, HeLa-ACE2; read-out: HeLa-ACE2 TOA cell count EC50 GeoMean
[7] = system: SARS-CoV-2; assay: microbe, parasite or virus in culture; assay type: cell-based
[8] = system: HeLa-ACE2 cells; assay: cells; settings: Homo sapiens
[9] = system: SARS-CoV-2; assay type: cell-based
[10] = system: Calu-3 cells; assay: cells; settings: Homo sapiens; for Emax: Calu-3, 48 h
[11] = in vitro; settings: human
[12] = system: HEK293T; settings: human, 72 h
[13] = Uninfected HeLa-ACE2 24 h live/dead cytotoxicity counter screen; assay type: cell-based, human; settings: human, uninfected HeLa-ACE2 cells
[14] = system: HeLa-ACE2 cells; assay: as above; assay type: cell-based, human
[15] = system: HeLa-ACE2 cells
[16] = system: Calu-3 cells; assay: Uninfected Calu-3 48 h Cell-Titer Glo cytotoxicity counter screen
[17] = system: Calu-3 cells; settings: for Calu-3 cell count Sinf Average: curve-fit effect at infinite concentration; for pEC50: read-out: Calu-3 cell count EC50 GeoMean, unrounded geometric mean
[18] = reconfirmed hits, read-out: HeLa-ACE2 Uninf. cells CC50
[19] = curve-fit effect at infinite concentration, average
[20] = read-out: Calu-3 uninfected cytotoxicity CC50 GeoMean, unrounded geometric mean
[21] = unrounded geometric mean, read-out: HeLa-ACE2 CoV-2 EC50 GeoMean
[22] = unrounded geometric mean, read-out: Calu-3 CoV-2 EC50 GeoMean
[23] = unrounded geometric mean, read-out: HeLa-ACE2 uninfected cytotoxicity CC50 GeoMean

Q: Which results are given for `COc1ccc2c(O[C@@H]3C[C@H]4C(=O)N[C@]5(C(=O)NS(=O)(=O)C6CC6)C[C@H]5/C=C\CCCCN(C)C(=O)[C@@H]4C3)cc(-c3nc(C(C)C)cs3)nc2c1C` [Simeprevir]?
A: uninfected Calu-3 CC50 [1]: > 22.39 ×÷ 1.591 (n=6) μM; Calu-3 uninfected cytotoxicity Sinf Average ([1]; human, 48 h): -100%; Cmax ([2]; in vivo, po): 32 µM; Approx. t1/2 [2]: 16 h; HepG2 72-hour cytotoxicity Sinf Average [3]: -100%; Emax ([4]; Severe acute respiratory syndrome coronavirus 2, HeLa-ACE2, 24 h, read-out: HeLa-ACE2 CoV-2 Sinf Average): 100%; pEC50 ([4]; Severe acute respiratory syndrome coronavirus 2, HeLa-ACE2, detail column, read-out: HeLa-ACE2 CoV-2 EC50 GeoMean): < 5.10; pEC50 ([4]; Severe acute respiratory syndrome coronavirus 2, HeLa-ACE2, reconfirmed hits, read-out: HeLa-ACE2 SARS-CoV-2 EC50): 5.10; HeLa-ACE2 SI ([4]; selectivity index, uninfected HeLa-ACE2 CC50 / SARS-CoV-2 EC50): > 2.81; Emax ([5]; read-out: Calu-3 CoV-2 Sinf Average): 100%; pEC50 ([5]; Severe acute respiratory syndrome coronavirus 2, Calu-3, detail column, read-out: Calu-3 CoV-2 EC50 GeoMean): < 5.11; pEC50 ([5]; Severe acute respiratory syndrome coronavirus 2, Calu-3, reconfirmed hits, read-out: Calu-3 SARS-CoV-2 EC50): 5.11; Calu-3 SI ([5]; selectivity index, uninfected Calu-3 CC50 / SARS-CoV-2 EC50): > 2.91; pEC50 [6]: < 5.02; Emax ([7]; Severe acute respiratory syndrome coronavirus 2, HeLa-ACE2, 10 h, read-out: HeLa-ACE2 TOA CoV-2 Sinf Average): 100%; pEC50 ([7]; Severe acute respiratory syndrome coronavirus 2, HeLa-ACE2, read-out: HeLa-ACE2 TOA CoV-2 EC50 GeoMean): < 5.06; Emax ([8]; HeLa-ACE2, 24 h, read-out: HeLa-ACE2 cell count Sinf Average): 100%; pEC50 ([8]; HeLa-ACE2, read-out: HeLa-ACE2 cell count EC50 GeoMean): < 5.02; Synergy score with remdesivir (δ) ([9]; HeLa-ACE2): −0.67; HeLa-ACE2 synergy score with remdesivi ([9]; combination with remdesivir): -0.667 δ; Emax ([10]; read-out: Calu-3 cell count Sinf Average): 100%; pEC50 ([10]; Calu-3, read-out: Calu-3 cell count EC50 GeoMean): < 5.02; CC50 at 48 h ([11]; Calu-3 Uninf. cells CC50 (µM)): > 22.4 µM; HEK293T 72-hour cytotoxicty Sinf Average [12]: -102%; CC50 at 24 h [13, 18]: > 22.2 µM; CC50 at 24 h ([13]; read-out: HeLa-ACE2 uninfected cytotoxicity CC50 GeoMean): > 22.2 µM; HeLa-ACE2 uninfected cytotoxicity Sinf Average ([14]; human, uninfected HeLa-ACE2 cells, 24 h): -100%

Q: What does the source list for `CN(C)C(C(=O)Nc1ccc2c(=O)[nH]ccc2c1)c1ccsc1` (stereo not drawn) [Verosudil]?
A: uninfected Calu-3 CC50 [μM] [1]: > 18.887 ×÷ 2.21 (n=3) μM; Calu-3 uninfected cytotoxicity Sinf Average (%) ([1]; human, 48 h): 80%; pEC50 ([4]; Severe acute respiratory syndrome coronavirus 2, HeLa-ACE2, geometric mean of replicates, read-out: HeLa-ACE2 CoV-2 EC50 GeoMean): < 5.02; Emax ([5]; Sinf average of the curves, read-out: Calu-3 CoV-2 Sinf Average (%)): 93%; pEC50 ([5]; Severe acute respiratory syndrome coronavirus 2, Calu-3, geometric mean of replicates, read-out: Calu-3 CoV-2 EC50 GeoMean): < 5.46; EC50 ([8]; HeLa-ACE2, read-out: HeLa-ACE2 cell count EC50 GeoMean (µM), geometric mean of replicates): > 9.59 µM; Emax ([10]; read-out: Calu-3 cell count Sinf Average (%)): 79%; EC50 ([10]; Calu-3, read-out: Calu-3 cell count EC50 GeoMean (µM), geometric mean of replicates): 0.561 µM; CC50 at 48 h ([11]; Calu-3 uninfected cytotoxicity CC50 GeoMean (µM)): > 18.9 µM; CC50 at 24 h ([13]; geometric mean of replicates, read-out: HeLa-ACE2 uninfected cytotoxicity CC50 GeoMean): > 39.8 µM; HeLa-ACE2 uninfected cytotoxicity Sinf Average (%) ([14]; Sinf average of the curves): -100%; HeLa-ACE2 cell count Sinf Average (%) ([15]; Sinf average of the curves): -100%

Q: For Deazaneplanocin A, which “Calu-3 uninfected cytotoxicity Sinf Average” value [16, 19] is on record?
A: The value was -70%.

Q: And the CC50 [16, 20]?
A: The CC50 was over 10.3 µM.

Q: And the “HeLa-ACE2 CoV-2 Sinf Average” value [4]?
A: Its value is -100%.

Q: And the pEC50 [4, 21]?
A: The pEC50 was under 5.02.

Q: And the “Calu-3 CoV-2 Sinf Average” value [5]?
A: Its value is -85%.

Q: What about the pEC50 [5, 22] of the same molecule?
A: Its pEC50 is 7.25.

Q: And the “HeLa-ACE2 uninfected cytotoxicity Sinf Average” value [14, 19]?
A: Its value is -79%.

Q: And the CC50 [14, 23]?
A: Its CC50 is over 7.95 µM.

Q: And the “Calu-3 cell count Sinf Average” value [17]?
A: The value was 62%.

Q: What about the pEC50 [17] of the same molecule?
A: The pEC50 was 6.97.

Q: For Mitoguazone, which “Approx. t1/2” value [2] is on record?
A: The value was 175 h.

Q: What about the Cmax ([2]; read-out: Approx. Cmax, IV, ref [44]) of the same molecule?
A: The Cmax was 120 µM.

Q: And the CC50 ([16]; read-out: Calu-3 Uninf. cells CC50, reconfirmed hits)?
A: The CC50 was over 30 µM.

Q: And the CC50 [16, 20]?
A: Its CC50 is over 29.9 µM.

Q: And the “HeLa-ACE2 CoV-2 Sinf Average” value [4]?
A: Its value is -100%.

Q: What about the pEC50 ([4]; reconfirmed hits, read-out: HeLa-ACE2 SARS-CoV-2 EC50) of the same molecule?
A: The pEC50 was under 5.02.

Q: What about the pEC50 [4, 21] of the same molecule?
A: Its pEC50 is under 5.02.

Q: And the “Calu-3 CoV-2 Sinf Average” value [5]?
A: Its value is -94%.

Q: And the pEC50 ([5]; reconfirmed hits, read-out: Calu-3 SARS-CoV-2 EC50)?
A: Its pEC50 is 6.35.

Q: What about the pEC50 [5, 22] of the same molecule?
A: Its pEC50 is 6.35.

Q: And the “HeLa-ACE2 uninfected cytotoxicity Sinf Average” value [14, 19]?
A: Its value is -99%.

Q: And the CC50 [14, 18]?
A: The CC50 was over 40 µM.

Q: And the CC50 [14, 23]?
A: The CC50 was over 39.8 µM.

Q: What about the “Calu-3 cell count Sinf Average” value [17] of the same molecule?
A: The value was 71%.

Q: And the pEC50 [17]?
A: Its pEC50 is under 5.39.

Q: With Oligomycin A as the molecule, how does the pEC50 [4, 21] read?
A: The pEC50 was under 5.02.

Q: What about the pEC50 [5, 22] of the same molecule?
A: The pEC50 was over 8.13.

Q: What about the “Calu-3 cell count Sinf Average” value [17] of the same molecule?
A: The value was 50%.

Q: And the pEC50 [17]?
A: The pEC50 was under 6.66.

Q: What about the pEC50 ([15]; read-out: HeLa-ACE2 cell count EC50 GeoMean, unrounded geometric mean) of the same molecule?
A: The pEC50 was under 5.02.
